# How the values were obtained:
# T. brucei brucei = conditions: ip doses as low as 3 × 1 mg/kg; cure = survival more than 30 days beyond controls; cited from earlier work
# [1] = at micromolar concentrations; cited from earlier work
# T. brucei rhodesiense = format: in vivo; conditions: for Cures: cure = survival for more than 60 days after infection without a parasitemia relapse, cured/treated mice; for In vivo toxicity: 4×50 mg/kg ip in infected mice
# [2] = tested on: T. brucei rhodesiense STIB900; format: cell-based, Trypanosoma brucei rhodesiense; conditions: STIB900 strain, in vitro
# [3] = 4×50 mg/kg ip on days 3–6 post-infection
Compound,Cures (T. brucei rhodesiense; [3]),In vivo toxicity (T. brucei rhodesiense),other results
"CS(=O)(=O)O.O=C(Nc1ccc(C2=NCCN2)cc1)c1ccc(C(=O)Nc2ccc(C3=NCCN3)cc2)cc1 [Compound 1, N,N'-Bis[4-(4,5-dihydro-1H-imidazol-2-yl)phenyl]terephthalamide dimesylate]",,,Cure of T. brucei brucei-infected mice (T. brucei brucei): completely cured; Mutagenicity [1]: mutagenic
"CS(=O)(=O)O.O=C(Nc1ccc(C2=NCCN2)cc1)c1cccc(C(=O)Nc2ccc(C3=NCCN3)cc2)c1 [Compound 2, N,N'-Bis[4-(4,5-dihydro-1H-imidazol-2-yl)phenyl]isophthalamide dimesylate]",completely curative,,
"CS(=O)(=O)O.O=C(Nc1ccc(C2=NCCN2)cc1)c1ccc(NC(=O)c2ccc(C3=NCCN3)cc2)cc1 [Compound 5, N-[4-(4,5-Dihydro-1H-imidazol-2-yl)phenyl]-4-[[4-(4,5-dihydro-1H-imidazol-2-yl)benzoyl]amino]benzamide dimesylate]",,no in vivo toxicity,
"CS(=O)(=O)O.O=C(Nc1ccc(C2=NCCN2)cc1)c1ccc(-c2ccc(C(=O)Nc3ccc(C4=NCCN4)cc3)cc2)cc1 [Compound 8, N,N'-Bis[4-(4,5-dihydro-1H-imidazol-2-yl)phenyl]biphenyl-4,4’-dicarboxamide dimesylate]",ineffective,,
"CS(=O)(=O)O.O=C(Nc1ccc(C2=NCCN2)cc1)c1ccc(C2=NCCN2)cc1 [Compound 10, N-[4-(4,5-Dihydro-1H-imidazol-2-yl)phenyl]-4-(4,5-dihydro-1H-imidazol-2-yl)benzamide dimesylate]",,no in vivo toxicity,
"O=C(Nc1ccc(C2=NCCN2)cc1)c1ccc(-c2cc3ccc(C4=NCCN4)cc3[nH]2)cc1 [Compound 11, 6-(4,5-Dihydro-1H-imidazol-2-yl)-2-[4-[[[4-(4,5-dihydro-1H-imidazol-2-yl)phenyl]amino]carbonyl]phenyl]indole]",,,T. b. rhodesiense IC50 [2]: single digit nM
"CS(=O)(=O)O.O=C(NCc1ccc(C2=NCCN2)cc1)c1ccc(-c2cc3ccc(C4=NCCN4)cc3[nH]2)cc1 [Compound 12, 6-(4,5-Dihydro-1H-imidazol-2-yl)-2-[4-[[[[4-(4,5-dihydro-1H-imidazol-2-yl)phenyl]methyl]amino]carbonyl]phenyl]indole dimesylate]",ineffective,lethal,"Mean Survival Days (T. brucei rhodesiense; 4×50 mg/kg ip on days 3–6 post-infection, mice with and without parasitemia relapse): toxic ^d; T. b. rhodesiense IC50 [2]: single digit nM"
